Assay type in all cases: in vivo
The test system of data set [1] is Ultradwarf Bermudagrass. The data set can be described thus: Evapotranspiration of treated turfgrass samples at various vapor pressure deficits in the growth chamber (Example 3). The following applies: ASM 30.8 g/ha per spray, 15 applications at 14 day intervals, with chlorothalonil, fluazinam and azoxystrobin products; vs Control without ASM; samples July 2015 and September 2015. An excerpt:
(§1) Fifteen applications of treatments were made on 14 day intervals through the season (starting in May and extending through October) on Ultradwarf Bermudagrass on golf course greens. The treatments included (1) a Control that included products with the active ingredients of chlorothalonil, fluazinam and azoxystrobin and no ASM and (2) a treatment that included products with the same active ingredients and rates of the Control treatment, but also included 30.8 g/ha rate of ASM for each spray.
(§2) Turfgrass Samples from the treated plots were taken from a) the ASM treated plots as well b) the Control plots without acibenzolar-s-methyl at two different timings—July 2015 and September 2015. All samples were tested for evapotranspiration at various vapor pressure deficits (VPD) in the growth chamber. The results of the testing are illustrated in FIGS. 9-12.

In data set [2] the test system is warm-season turfgrasses. The data set can be described thus: Abiotic stress and phytotoxicity at stated application rates on warm-season turfgrasses. The following applies: ASM between about 4 and about 200 g/ha per application. The source says:
As indicated above, the methods of the present invention may be useful in suppressing abiotic stress or stresses in warm-season turfgrasses. In some embodiments of the present invention, ASM may be applied at a rate of between about 4 and about 200 g/ha per application. In further embodiments of the invention, ASM may be applied at a rate between about 12 and about 150 g/ha per application, or between 12 and about 96 g/ha per application, or between about 12 and about 64 g/ha per application, or between about 12 and about 32 g/ha per application, or between about 32 and about 140 g/ha per application, or between about 32 and about 96 g/ha per application, or between about 32 and about 64 g/ha per application, or between about 64 and about 140 g/ha per application, or between about 64 and about 96 g/ha per application, or between about 96 and about 140 g/ha per application.

In data set [3] the test system is cool-season grasses. The data set can be described thus: Phytotoxicity at stated application rates on cool-season grasses. The conditions noted are these: ASM between about 4 and about 200 g/ha per application.
Data set [4] relates to Ultradwarf Bermudagrass. The data set can be described thus: Turf quality and phytotoxicity on golf course greens (Example 3). The conditions noted are these: ASM 30.8 g/ha per spray, 15 applications at 14 day intervals.
Text: as §1, §2

Regarding `CSC(=O)c1cccc2nnsc12` [ASM, S-methyl benzo[1,2,3]thiadiazole-7-carbothioate], the “evapotranspiration as VPD increases” value in data set [1] is recorded as “overall reduced evapotranspiration”. Also, in data set [2], the “phytotoxicity to warm-season turfgrasses” value is listed as “avoiding unacceptable phytotoxicity”. Moreover, the “phytotoxicity to cool-season grasses” value in data set [3] is “unacceptable levels of phytotoxicity”. In data set [4], the “phytotoxicity to the turfgrass” value is reported as “did not result in any unacceptable phytotoxicity”. Moreover, in data set [4] (with chlorothalonil, fluazinam and azoxystrobin products), the “turf quality under drought or heat stress” value is on record as “improved turf quality”.

The record behind these values is patent US20220287306A1, “METHOD FOR IMPROVING TURFGRASS ABIOTIC STRESS TOLERANCE” (SYNGENTA PARTICATIONS AG, priority 2014, published 2022).
